Results: US5416222A, “3-pyrrolidine methanamines wherein the alpha-carbon is substituted by 1 or 2 lower alkyl groups which are intermediates for pyridone-carboxylic acid derivatives” (Daiichi Seiyaku Co., Ltd., priority 1985, dated 1995)
In brackets after ≈: the same amount, converted by molar mass.

Key:
Assay in all cases: antimicrobial activity, MIC, standard process of Japan Society of Chemotherapy
Assay type in all cases: cell-based
Ps. aeruginosa, 2063 = conditions: for MIC: Pseudomonas aeruginosa, 2063, Ps. aeruginosa, read-out: minimum growth inhibitory concentration (MIC); for minimum growth inhibitory concentration (MIC): Ps. aeruginosa
Protocol: (§1) The antimicrobial activities of the compounds of the present invention were determined according to a standard process designated by the Japan Society of Chemotherapy and the minimum growth inhibitory concentrations (MIC) (μg/ml) the compounds were determined.

Str. pyogenes, G-36 = conditions: for minimum growth inhibitory concentration (MIC): Str. pyogenes; for MIC: Streptococcus pyogenes, G36, Str. pyogenes, read-out: minimum growth inhibitory concentration (MIC)
Protocol: as §1

S. epidermidis, 56500 = conditions: for MIC: Staphylococcus epidermidis, 56500, S. epidermidis, read-out: minimum growth inhibitory concentration (MIC); for minimum growth inhibitory concentration (MIC): S. epidermidis
Protocol: as §1

[1] = test system: Str. faecalis, ATCC 19433; conditions: for MIC: Enterococcus faecalis, ATCC19433, Str. faecalis, read-out: minimum growth inhibitory concentration (MIC); for minimum growth inhibitory concentration (MIC): Str. faecalis
Protocol: as §1

Pr. mirabilis, IF03849 = conditions: for MIC: Proteus mirabilis, IF03849, Pr. mirabilis, read-out: minimum growth inhibitory concentration (MIC); for minimum growth inhibitory concentration (MIC): Pr. mirabilis
Protocol: as §1

Pr. vulgaris, 3167 = conditions: for MIC: Proteus vulgaris, 3167, Pr. vulgaris, read-out: minimum growth inhibitory concentration (MIC); for minimum growth inhibitory concentration (MIC): Pr. vulgaris
Protocol: as §1

Ps. cepacia, IID1340 = conditions: for MIC: Burkholderia cepacia, IID1340, Ps. cepacia, read-out: minimum growth inhibitory concentration (MIC); for minimum growth inhibitory concentration (MIC): Ps. cepacia
Protocol: as §1

Ps. maltophilia, IID1275 = conditions: for MIC: Stenotrophomonas maltophilia, IID1275, Ps. maltophilia, read-out: minimum growth inhibitory concentration (MIC); for minimum growth inhibitory concentration (MIC): Ps. maltophilia
Protocol: as §1

Ser. marcescens, 13001 = conditions: for MIC: Serratia marcescens, 13001, Ser. marcescens, read-out: minimum growth inhibitory concentration (MIC); for minimum growth inhibitory concentration (MIC): Ser. marcescens
Protocol: as §1

E. coli, NIHJ = conditions: for MIC: Escherichia coli, read-out: minimum growth inhibitory concentration (MIC)
Protocol: as §1

Ps. aeruginosa, 2128 = conditions: for MIC: Pseudomonas aeruginosa, 2128, Ps. aeruginosa, read-out: minimum growth inhibitory concentration (MIC); for minimum growth inhibitory concentration (MIC): Ps. aeruginosa
Protocol: as §1

S. aureus, 209P = conditions: for MIC: Staphylococcus aureus, read-out: minimum growth inhibitory concentration (MIC)
Protocol: as §1

Sh. flexneri, 2a5503 = conditions: for MIC: Shigella flexneri, read-out: minimum growth inhibitory concentration (MIC)
Protocol: as §1

| SMILES | MIC (Ps. aeruginosa, 2063) [µg/mL] | minimum growth inhibitory concentration (MIC) (Str. pyogenes, G-36) [µg/mL] | MIC (S. epidermidis, 56500) [µg/mL] | MIC [1] [µg/mL] | MIC (Pr. mirabilis, IF03849) [µg/mL] | MIC (Pr. vulgaris, 3167) [µg/mL] | MIC (Ps. cepacia, IID1340) [µg/mL] | MIC (Ps. maltophilia, IID1275) [µg/mL] | MIC (Ser. marcescens, 13001) [µg/mL] | MIC (E. coli, NIHJ) [µg/mL] | MIC (Ps. aeruginosa, 2128) [µg/mL] | MIC (S. aureus, 209P) [µg/mL] | MIC (Sh. flexneri, 2a5503) [µg/mL] | MIC (Str. pyogenes, G-36) [µg/mL] | minimum growth inhibitory concentration (MIC) (Ps. aeruginosa, 2063) [µg/mL] | minimum growth inhibitory concentration (MIC) (S. epidermidis, 56500) [µg/mL] | minimum growth inhibitory concentration (MIC) [1] [µg/mL] | minimum growth inhibitory concentration (MIC) (Pr. mirabilis, IF03849) [µg/mL] | minimum growth inhibitory concentration (MIC) (Pr. vulgaris, 3167) [µg/mL] | minimum growth inhibitory concentration (MIC) (Ps. cepacia, IID1340) [µg/mL] | further results |
| --- | --- | --- | --- | --- | --- | --- | --- | --- | --- | --- | --- | --- | --- | --- | --- | --- | --- | --- | --- | --- | --- |
| CCC(N)C1CCN(c2c(F)cc3c(=O)c(C(=O)O)cn(C4CC4)c3c2F)C1 (stereo not drawn) [Example 9, 7-[3-(1-Aminopropyl)-1-pyrrolidinyl]-1-cyclopropyl-6,8-difluoro-1,4-dihydro-4-oxoquinoline-3-carboxylic acid] | 0.78 (≈ 1.99 µM) | ≤ 0.05 | ≤ 0.05 | 0.1 (≈ 0.255 µM) | 0.1 (≈ 0.255 µM) | ≤ 0.05 | 0.39 (≈ 0.996 µM) | 0.1 (≈ 0.255 µM) | ≤ 0.05 | ≤ 0.05 | 0.2 (≈ 0.511 µM) | ≤ 0.05 | ≤ 0.05 | – | – | – | – | – | – | – | – |
| CCC(N)C1CCN(c2c(F)cc3c(=O)c(C(=O)O)cn(CC)c3c2F)C1 (stereo not drawn) [Example 10, 7-[3-(1-Aminopropyl)-1-pyrrolindinyl]-1-ethyl-6,8-difluoro-1,4-dihydro-4-oxoquinoline-3-carboxylic acid] | 1.56 (≈ 4.11 µM) | – | 0.1 (≈ 0.264 µM) | ≤ 0.05 | 0.2 (≈ 0.527 µM) | 0.1 (≈ 0.264 µM) | 1.56 (≈ 4.11 µM) | 0.39 (≈ 1.03 µM) | 0.2 (≈ 0.527 µM) | ≤ 0.05 | 6.39 (≈ 16.8 µM) | ≤ 0.05 | ≤ 0.05 | ≤ 0.05 | – | – | – | – | – | – | – |
| CCn1cc(C(=O)O)c(=O)c2cc(F)c(N3CCC(C(C)(C)N)C3)c(F)c21 (stereo not drawn) [Example 12, 7-[3-(1-amino-1-methyl)ethyl-1-pyrrolidinyl]-1-ethyl-6,8-difluoro-1,4-dihydro-4-oxoquinoline-3-carboxylic acid] | 1.56 (≈ 4.11 µM) | – | 0.1 (≈ 0.264 µM) | 0.1 (≈ 0.264 µM) | 0.39 (≈ 1.03 µM) | 0.2 (≈ 0.527 µM) | 1.56 (≈ 4.11 µM) | 0.39 (≈ 1.03 µM) | 0.39 (≈ 1.03 µM) | ≤ 0.05 | 0.39 (≈ 1.03 µM) | ≤ 0.05 | ≤ 0.05 | 0.1 (≈ 0.264 µM) | – | – | – | – | – | – | – |
| CNC(C)(C)C1CCN(c2c(F)cc3c(=O)c(C(=O)O)cn(C4CC4)c3c2F)C1 (stereo not drawn) [Example 14, 1-Cyclopropyl-6,8-difluoro-1,4-dihydro-7-[3-(1-methyl-1-methylamino)ethyl-1-pyrrolidinyl]-4-oxoquinoline-3-carboxylic acid] | 3.13 (≈ 7.72 µM) | – | 0.2 (≈ 0.493 µM) | 0.1 (≈ 0.247 µM) | 0.2 (≈ 0.493 µM) | 0.2 (≈ 0.493 µM) | 1.56 (≈ 3.85 µM) | 0.39 (≈ 0.962 µM) | 0.39 (≈ 0.962 µM) | ≤ 0.05 | 0.39 (≈ 0.962 µM) | 0.2 (≈ 0.493 µM) | ≤ 0.05 | 0.1 (≈ 0.247 µM) | – | – | – | – | – | – | – |
| NC1(C2CCN(c3c(F)cc4c(=O)c(C(=O)O)cn(C5CC5)c4c3F)C2)CC1 (stereo not drawn) [Example 15] | 0.39 (≈ 1 µM) | – | ≤ 0.05 | 0.2 (≈ 0.514 µM) | 0.2 (≈ 0.514 µM) | 0.1 (≈ 0.257 µM) | 0.39 (≈ 1 µM) | 0.2 (≈ 0.514 µM) | 0.2 (≈ 0.514 µM) | ≤ 0.05 | 0.2 (≈ 0.514 µM) | ≤ 0.05 | ≤ 0.05 | ≤ 0.05 | – | – | – | – | – | – | – |
| CCn1cc(C(=O)O)c(=O)c2cc(F)c(N3CCC(C4(N)CC4)C3)c(F)c21 (stereo not drawn) [Example 16, 7-[3-(1-aminocyclopropyl)-1-pyrrolidinyl]-1-ethyl-6,8-difluoro-1,4-dihydro-4-oxoquinoline-3-carboxylic acid] | 1.56 (≈ 4.13 µM) | – | 0.2 (≈ 0.53 µM) | 0.39 (≈ 1.03 µM) | 0.39 (≈ 1.03 µM) | 0.2 (≈ 0.53 µM) | 0.78 (≈ 2.07 µM) | 0.39 (≈ 1.03 µM) | 0.39 (≈ 1.03 µM) | ≤ 0.05 | 0.39 (≈ 1.03 µM) | ≤ 0.05 | ≤ 0.05 | 0.2 (≈ 0.53 µM) | – | – | – | – | – | – | – |
| CC(N)C1CCN(c2nc3c(cc2F)c(=O)c(C(=O)O)cn3C2CC2)C1 (stereo not drawn) [Example 18, 7-[3-(1-Aminoethyl)-1-pyrrolidinyl]-1-1-cyclopropyl-6-fluoro-1,4-dihydro-4-oxo-1,8-naphthylidine-3-carboxylic acid] | – | 0.39 | – | – | – | – | – | – | – | – | – | – | – | – | 0.39 | ≤ 0.05 | 0.20 | 0.20 | 0.10 | 0.39 | minimum growth inhibitory concentration (MIC) (Ps. maltophilia, IID1275): 0.20 µg/mL; minimum growth inhibitory concentration (MIC) (Ser. marcescens, 13001): 0.20 µg/mL; minimum growth inhibitory concentration (MIC) (E. coli, NIHJ): ≤ 0.05 µg/mL; minimum growth inhibitory concentration (MIC) (Ps. aeruginosa, 2128): 0.20 µg/mL; minimum growth inhibitory concentration (MIC) (S. aureus, 209P): ≤ 0.05 µg/mL; minimum growth inhibitory concentration (MIC) (Sh. flexneri, 2a5503): ≤ 0.05 µg/mL |
| CC(N)C1CCN(c2nc3c(cc2F)c(=O)c(C(=O)O)cn3C2CC2)C1 (stereo not drawn) [Example 19] | – | 0.20 | – | – | – | – | – | – | – | – | – | – | – | – | 0.20 | ≤ 0.05 | 0.10 | 0.10 | ≤ 0.05 | 0.39 | minimum growth inhibitory concentration (MIC) (Ps. maltophilia, IID1275): 0.20 µg/mL; minimum growth inhibitory concentration (MIC) (Ser. marcescens, 13001): ≤ 0.05 µg/mL; minimum growth inhibitory concentration (MIC) (E. coli, NIHJ): ≤ 0.05 µg/mL; minimum growth inhibitory concentration (MIC) (Ps. aeruginosa, 2128): ≤ 0.05 µg/mL; minimum growth inhibitory concentration (MIC) (S. aureus, 209P): ≤ 0.05 µg/mL; minimum growth inhibitory concentration (MIC) (Sh. flexneri, 2a5503): ≤ 0.05 µg/mL |
| CCC(N)C1CCN(c2c(F)cc3c(=O)c(C(=O)O)cn(C4CC4)c3c2F)C1 (stereo not drawn) [Example 22] | – | 0.20 | – | – | – | – | – | – | – | – | – | – | – | – | 0.39 | ≤ 0.05 | 0.20 | 0.10 | ≤ 0.05 | 0.20 | minimum growth inhibitory concentration (MIC) (Ps. maltophilia, IID1275): 0.20 µg/mL; minimum growth inhibitory concentration (MIC) (Ser. marcescens, 13001): 0.10 µg/mL; minimum growth inhibitory concentration (MIC) (E. coli, NIHJ): ≤ 0.05 µg/mL; minimum growth inhibitory concentration (MIC) (Ps. aeruginosa, 2128): 0.20 µg/mL; minimum growth inhibitory concentration (MIC) (S. aureus, 209P): ≤ 0.05 µg/mL; minimum growth inhibitory concentration (MIC) (Sh. flexneri, 2a5503): ≤ 0.05 µg/mL |
